Entries after “also recorded” stand apart in the source; their conditions may differ. Counter-ions that a name gives are not always drawn.
Assays:
[1] = Compound stability in simulated gastric fluid (SGF); type: in vitro ADME; conditions: 400 μg/mL, 37° C., percentage of initial concentration, LC-MS/MS
Method: Compounds were evaluated for stability in simulated gastric fluid (SGF). A solution of a compound in SGF (400 μg/mL) was incubated at 37° C. for 4 h. An aliquot of the sample was withdrawn, at time 0 and time 4 h, for concentration analysis on a LC-MS/MS instrument. The initial concentration (at time 0) of a compound was considered as 1, and the remaining concentration of the compound at 4-h time point was calculated and expressed as the percentage of the initial concentration.

[2] = Compound stability in whole mouse blood; type: in vitro ADME; conditions: fresh mouse blood, initial concentration 1.44 μM, 37° C., test (parent) compound at 4 h
Method: Compounds were also evaluated for stability in whole mouse blood. A sample of test compound in fresh mouse blood (at a concentration of 1.44 μM) was incubated at 37° C. for 4 h. An aliquot of the sample was withdrawn, at time 5 min. and time 4 h, for concentration analysis on a LC-MS/MS instrument after converting the blood sample to an analytical sample employing standard sample preparation procedures. The detailed recovery of the compound was not fully evaluated and optimized. The sample was analyzed for the parent compound and the therapeutic compound.

[3] = Pharmacokinetic study in ICR mice, oral (FIGS. 1 and 2); type: in vivo; conditions: for concentration of metabolite (2-carboxy-1-ethanesulfonic acid) in plasma compared to 3APS (of natural abundance): 0.72 mmol/kg, 2 h; for drug metabolism compared to 3APS (of natural abundance) / plasma drug exposure compared to 3APS (of natural abundance): mole-equivalent dose (0.72 mmol/kg)
Method: A compound according to the invention is dissolved in water at a concentration determined by the desired dose and dosing volume for the specific animal to which the compound is to be administered. A calculated volume of dosing solution is administered to the animal (PO, SQ, IP, or IV). A blood sample is collected following administration of the compound at specific time points (such as 10 min., 30 min., 1 h, 2 h, 4 h, 8 h, and 12 h). The blood sample is converted to a plasma sample using standard techniques. A brain sample can also be collected after complete perfusion. The plasma and/or brain samples are analyzed to determine the concentration of relevant compounds (including e.g., administered compounds, therapeutic compounds (e.g., drugs) and metabolites).
(§1) Forty-two male ICR mice, body-weight of 19 to 21 g, are randomized into 7 groups. The animals are administered with an aqueous solution of a test compound by oral gavage. Blood samples are collected into tubes pre-loaded with heparin anticoagulating agent, at time 0.167, 0.5, 1, 2, 4, 8, and 12 h after administration. Blood samples are centrifuged, and plasma samples are isolated for analysis of the test compound (including compounds administered, metabolites, and/or prodrugs). A 400 μL blood sample is collected from each animal, and then the animal is put to sleep with barbiturate anesthesia; perfusion is performed (through the main vein of the heart) with saline at a rate of 5 mL/min., for 6 min. The brain is collected and kept at −40° C. until the sample is analyzed. The protein in the plasma is precipitated and the analytical sample is analyzed on an AB4000-Q-Trap UPLC-MS/MS instrument.

[4] = Pharmacokinetic study in C57Bl6 mice; type: in vivo; set-up: AUC(0-t): concentration or dose not given beside the values; conditions: mouse, oral gavage, plasma, prodrug; for AUC(0-t): read-out: Prodrug AUCt; for half-life: read-out: Prodrug T1/2 (converted)
Method: as §1
Pharmacokinetic studies were performed in C57B16 mice. The experiments were done using the same protocol described in Example 20. For each compound, 42 animals were used (6 animals per time point, and 7 time points distributed at 10 min, 0.5, 1, 2, 4, 8 and 12 h).

Row | Structure (SMILES) | Remaining (%) at 4 h [1] | Compound conc. (μM) at 4 h [2] [µM] | concentration of metabolite (2-carboxy-1-ethanesulfonic acid) in plasma compared to 3APS (of natural abundance) [3] | Cmax [4] [ng/mL] | AUC(0-t) [4] [ng·h/mL] | half-life [4] [h] | conversion of prodrug to compound 1 in the subject ([3]; plasma) | drug metabolism compared to 3APS (of natural abundance) [3] | plasma drug exposure compared to 3APS (of natural abundance) [3]
1 | [2H]C([2H])(N)CCS(=O)(=O)O [Compound 1, 3-amino-3,3-dideuterium-1-propanesulfonic acid] | (100) % | 0.98 | much lower |  |  |  |  | delayed drug metabolism; also recorded: delayed metabolic profile | improved plasma drug exposure significantly
2 | C[C@H](N)C(=[18O])NCCCS(=O)(=O)O [Compound 13, 3-((^18O-L-alanyl)amino)-1-propanesulfonic acid] |  |  |  | 672 | 1830 | 0.5 |  |  | 
3 | [2H]C([2H])(CCS(=O)(=O)O)NC(=O)[C@@H](N)Cc1c[nH]cn1 [Compound 6, 3-((L-histidyl)amino)-3,3-dideuterium-1-propanesulfonic acid hydrochloride] |  |  |  | 9920 | 16600 | 1.4 |  |  | 
4 | [2H]C([2H])(CCS(=O)(=O)O)NC(=O)[C@@H](N)CO [Compound 3, 3-(L-serylamino)-3,3,-dideuterium-1-propanesulfonic acid] |  |  |  | 22300 | 44700 | 1.9 |  |  | 
5 | [2H]C([2H])(CCS(=O)(=O)O)NC(=O)[C@H](C)N [Compound 2, 3-((L-alanyl)amino)-3,3-dideuterium-1-propanesulfonic acid] |  | 0.18 |  | 472 | 348 | 0.6 |  |  | 
6 | [2H]C([2H])(CCS(=O)(=O)O)NC(=O)[C@@H](N)Cc1ccccc1 [Compound 5, 3-((L-phenylalanyl)amino)-3,3-dideuterium-1-propanesulfonic acid] | 99% | 0.03 |  | 1090 | 782 | 0.4 |  |  | 
7 | CC(C)[C@H](N)C(=[18O])NCCCS(=O)(=O)O [Compound 15, 3-((^18O-L-valyl)amino)-1-propanesulfonic acid] | 104% | 0.78 |  |  |  |  |  |  | 
8 | [2H]C([2H])(CCS(=O)(=O)O)NC(=O)[C@@H](N)C(C)C [Compound 4, 3-((L-valyl)amino)-3,3-dideuterium-1-propanesulfonic acid] | 107% | 0.74 | much lower | 39500 | 38000 | 1.5 | converted easily to 1 | delayed drug metabolism | improved plasma drug exposure significantly; also recorded: even greater improvement of drug exposure

Now from value to compound, other results behind:

Row | Remaining (%) at 4 h [1] | Compound conc. (μM) at 4 h [2] [µM] | concentration of metabolite (2-carboxy-1-ethanesulfonic acid) in plasma compared to 3APS (of natural abundance) [3] | Cmax [4] [ng/mL] | AUC(0-t) [4] [ng·h/mL] | half-life [4] [h] | conversion of prodrug to compound 1 in the subject ([3]; plasma) | Structure (SMILES) | drug metabolism compared to 3APS (of natural abundance) [3] | plasma drug exposure compared to 3APS (of natural abundance) [3]
9 | 96% | 0.74 |  | 3840 | 11900 | 1.5 |  | N[C@@H](Cc1ccccc1)C(=[18O])NCCCS(=O)(=O)O [Compound 16] |  | 
10 |  | 0.80 |  |  |  |  |  | [2H]C([2H])(CCS(=O)(=O)O)NC(=[18O])[C@@H](N)C(C)C [Compound 29, 3-((^18O-L-valyl)amino)-3,3-dideuterium-1-propanesulfonic acid] |  | 
11 | 101% | 1.20 |  | 19000 | 14200 | 1.1 |  | N[C@@H](Cc1c[nH]cn1)C(=[18O])NCCCS(=O)(=O)O [Compound 17, 3-((^18O-L-histidyl)amino)-1-propanesulfonic acid hydrobromide] |  | 
